Reference: PubChem BioAssay AID449750 (Broad Institute, 2010)
Active and inactive are the calls of the source. How the calls were made is not given here.

assay: non-covalent RecA intein splicing inhibitors, dose response, biochemical, cell-free, fluorescence, secondary screen (AID 449750)

Compound	AC50
Cc1ccc(-c2nnc(Sc3nc4ccccc4o3)c3ccccc23)cc1	4.13 µM
CCOc1c(Br)cc(/C=C2\C(=O)N(CCC#N)N=C2C)cc1OC	11.1 µM
COc1cc(C=C2C(=O)c3ccccc3C2=O)ccc1O	> 38 µM (inactive)
C#CCOc1ccc(OC)cc1C(c1c(C)[nH][nH]c1=O)c1c(C)[nH][nH]c1=O	17.3 µM
CCOC(=O)N1C(=O)[C@](c2ccc(Cl)cc2)(C(C)C)N1C(=O)OCC	1.75 µM
Cc1cc(C(=O)CCl)c(C)n1CCc1ccc(Cl)cc1	4.99 µM
CN1C(=O)/C(=C/c2ccc(-c3ccccc3[N+](=O)[O-])o2)SC1=Nc1ccc(Cl)c(C(=O)O)c1	17.1 µM
Cc1ccc(C2CC(c3cccs3)=NN2C(=O)CCl)cc1 (stereo unspecified)	1.68 µM
CC(=O)N(Cc1ccc(F)cc1)C1=C(NCc2ccccc2)C(=O)c2ccccc2C1=O	2.18 µM
CC(=O)n1cc(N(C(=O)CCl)c2ccc(C)cc2)c2ccccc21	1.38 µM
Cc1ccc(C2C(C#N)=C(N)Oc3n[nH]c(-c4ccccc4)c32)o1 (stereo unspecified)	> 38 µM (inactive)
O=C(NC1=C(Nc2ccc(F)cc2)C(=O)c2ccccc2C1=O)c1ccc(Cl)cc1	13.6 µM
O=C(/C=C/c1ccco1)c1ccc(NC(=O)C23CC4CC(CC(C4)C2)C3)cc1	12.9 µM
O=C(NC1CCCCC1)C(c1cccnc1)N(C(=O)CCl)c1ccc(F)cc1 (stereo unspecified)	5.58 µM
COc1cc(C(c2c(C)[nH][nH]c2=O)c2c(C)[nH][nH]c2=O)cc([N+](=O)[O-])c1O	10.7 µM
CC(C)=CCC/C(C)=C/Cc1c(O)ccc(C(=O)/C=C/c2ccc(O)cc2)c1O	16.4 µM
CC(C)CC(NC(=O)CCl)c1ccccc1 (stereo unspecified)	5.47 µM
C/C(CC(=O)NCc1ccco1)=N\NC(=O)c1ccc([N+](=O)[O-])cc1Cl	> 38 µM (inactive)
CN(C)c1ccc(C(=O)n2nnc3ccccc32)cc1	> 38 µM (inactive)
O=[N+]([O-])c1c(Nc2ccccn2)cc(Cl)c2nonc12	1.76 µM
CCCCCC(=O)O[C@]1(C(C)=O)CC[C@H]2[C@@H]3CCC4=CC(=O)CC[C@]4(C)[C@H]3CC[C@@]21C	2.02 µM

Compound	AC50
Cc1ccc(NC(=O)c2nc(S(=O)(=O)Cc3ccccc3C)ncc2Cl)cc1C	> 38 µM (inactive)
O=C(Nc1ncc([N+](=O)[O-])s1)c1ccco1	> 38 µM (inactive)
CSc1nnc(NC(=O)c2nc(S(=O)(=O)Cc3cccc(C)c3)ncc2Cl)s1	> 38 µM (inactive)
CNC1=C(N(C(C)=O)c2ccc(Br)cc2)C(=O)c2ccccc2C1=O	2.43 µM
Cc1ccc(-c2csc(NC(=O)CSC3=NCCS3)n2)cc1	19.1 µM
O=C(c1ccc(N2CCN(CCO)CC2)nc1)N1CCOCC1	> 38 µM (inactive)
COc1ccc2nc3cccc(OC)c3nc2c1	16.1 µM
CNC(=O)/C(C#N)=C/c1c(N(Cc2ccccc2)Cc2ccccc2)nc2c(C)cccn2c1=O	13 µM
COc1cc(/C=C2\C(=O)N(c3ccc(S(N)(=O)=O)cc3)N=C2C)ccc1OC(=O)c1ccco1	21 µM
Cc1cc(C(=O)c2ccccc2)c(NC(=O)CCl)s1	7.09 µM
CCOC(=O)c1sc(N(Cc2ccccc2)C(=O)CCl)nc1C	5.79 µM
CC1=NN(c2ccccc2)C(=O)/C1=C\c1ccc(Oc2ccc([N+](=O)[O-])cc2[N+](=O)[O-])cc1	3.48 µM
COc1cc(/C=C2\C(=O)N(CCC#N)N=C2C)ccc1OCC(=O)Nc1ccccc1	8.37 µM
O=C(CCN1C(=O)/C(=C/c2cccs2)SC1=S)Nc1cccc(O)c1	> 38 µM (inactive)
CCOC(=O)c1c(NC(=O)c2ccco2)n(C2CCCCC2)c2nc3ccccc3nc12	> 12 µM (inactive)
CC(C)c1[nH]nc2c1C(c1cccc(OC(=O)N3CCOCC3)c1)C(C#N)=C(N)O2 (stereo unspecified)	> 38 µM (inactive)
COc1ccccc1NC(=O)c1cnc(SCC(=O)NCC2CCCO2)n(C)c1=O (stereo unspecified)	> 38 µM (inactive)
O=C1CC(c2ccccc2)=NN1c1ccc([N+](=O)[O-])cc1	7.43 µM
ONc1cccnc1-n1nc(C(F)(F)F)cc1C(F)(F)F	> 38 µM (inactive)
O=C(c1ccc(Cl)cc1)n1cnc2ccccc21	> 38 µM (inactive)
